Measurements reported in patent publication US7410963B2, “Benzo-1,4-diazepin-2-one derivatives as phosphodiesterase PDE2 inhibitors, preparation and therapeutic use thereof” (VIA Pharmaceuticals, Inc., priority 2003, dated 2008).

The molecules below were run against T1, PDE2 (Bos taurus, UniProt P14099) (assay: Radioenzymatic phosphodiesterase assay: PDE2 inhibition). Conditions: Table 1; 10 μM test compound.
T1 sequence (P14099 1-921): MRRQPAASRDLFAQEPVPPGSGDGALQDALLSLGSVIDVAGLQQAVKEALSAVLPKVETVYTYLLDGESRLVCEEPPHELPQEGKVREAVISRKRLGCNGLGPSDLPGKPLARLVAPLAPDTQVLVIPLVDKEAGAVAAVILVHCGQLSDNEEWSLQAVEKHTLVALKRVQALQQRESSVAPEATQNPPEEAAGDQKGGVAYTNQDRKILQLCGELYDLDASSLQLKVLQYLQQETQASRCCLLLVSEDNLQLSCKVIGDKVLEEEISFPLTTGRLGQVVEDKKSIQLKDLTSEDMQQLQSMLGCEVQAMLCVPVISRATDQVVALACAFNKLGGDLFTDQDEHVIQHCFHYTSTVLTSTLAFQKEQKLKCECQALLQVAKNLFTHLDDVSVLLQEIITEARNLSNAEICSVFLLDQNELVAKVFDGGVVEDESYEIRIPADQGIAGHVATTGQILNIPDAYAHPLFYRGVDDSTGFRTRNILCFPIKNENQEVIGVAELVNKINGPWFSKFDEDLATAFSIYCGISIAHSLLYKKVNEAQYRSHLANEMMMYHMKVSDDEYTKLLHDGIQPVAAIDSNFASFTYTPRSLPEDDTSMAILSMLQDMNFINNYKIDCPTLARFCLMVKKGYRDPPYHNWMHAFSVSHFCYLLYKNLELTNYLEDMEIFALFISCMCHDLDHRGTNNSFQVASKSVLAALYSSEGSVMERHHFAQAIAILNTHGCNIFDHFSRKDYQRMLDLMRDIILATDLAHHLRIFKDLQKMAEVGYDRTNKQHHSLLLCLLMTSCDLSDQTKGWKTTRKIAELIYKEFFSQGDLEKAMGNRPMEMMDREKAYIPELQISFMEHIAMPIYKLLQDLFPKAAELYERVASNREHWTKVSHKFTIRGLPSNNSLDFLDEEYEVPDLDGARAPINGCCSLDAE
Format: biochemical, bovine
Description: Nucleoside radioactivity was determined by liquid scintillation.
`COc1cc2c(cc1-c1ccc(C(N)=O)cc1)C(c1cccc(C(N)=O)c1)=NCC(=O)N2` [Example 34, 3-[8-Methoxy-7-(4-benzamide)-2-oxo-2,3-dihydro-1H-benzo[e][1,4]diazepin-5-yl]-benzamide] was tested, and the “PDE2 percentage of inhibition at 10 μM” value was 98%.

Same assay, conditions: Table 1; 10 μM test compound; read-out: PDE2 percentage of inhibition at 10 μM
In the case of `COc1ccccc1-c1cc2c(cc1OC)NC(=O)CN=C2c1cccc(C(N)=O)c1` [Example 36, 3-[8-Methoxy-7-(2-methoxy-phenyl)-2-oxo-2,3-dihydro-1H-benzo[e][1,4]diazepin-5-yl]-benzamide], the inhibition at 10 µM is reported as 94%. With `COc1ccccc1-c1cc2c(cc1OC)N(CCc1ccccc1)C(=O)CN=C2c1cccc(C#N)c1` [Example 38, 3-[8-Methoxy-7-(2-methoxy-phenyl)-2-oxo-1-phenethyl-2,3-dihydro-1H-benzo[e][1,4]diazepin-5-yl]-benzonitrile] the inhibition at 10 µM was 86%. Molecule `CN1C(=O)CN=C(c2cccc(Cl)c2)c2cc(-c3ccccc3)ccc21` [Example 40, 5-(3-Chloro-phenyl)-1-methyl-7-phenyl-1,3-dihydro-benzo[e][1,4]diazepin-2-one] has an inhibition at 10 µM of 68%. Work on `CN1C(=O)CN=C(c2ccccc2Cl)c2cc(-c3ccccc3)ccc21` [Example 41, 5-(2-Chloro-phenyl)-1-methyl-7-phenyl-1,3-dihydro-benzo[e][1,4]diazepin-2-one] yielded an inhibition at 10 µM of 34%. Work on `CN1C(=O)CN=C(c2ccc(Cl)cc2)c2cc(-c3ccccc3)ccc21` [Example 42, 5-(4-Chloro-phenyl)-1-methyl-7-phenyl-1,3-dihydro-benzo[e][1,4]diazepin-2-one] yielded an inhibition at 10 µM of 1%. `COc1ccccc1C1=NCC(=O)N(C)c2ccc(-c3ccccc3)cc21` [Example 51, 5-(2-Methoxy-phenyl)-1-methyl-7-phenyl-1,3-dihydro-benzo[e][1,4]diazepin-2-one] showed an inhibition at 10 µM of 28%. Work on `CN1C(=O)CN=C(c2cccc(C#N)c2)c2cc(-c3ccco3)ccc21` [Example 52, 3-[7-(Furan-2-yl)-1-methyl-2-oxo-2,3-dihydro-1H-benzo[e][1,4]diazepin-5-yl]-benzonitrile] yielded an inhibition at 10 µM of 78%. Work on `CN1C(=O)CN=C(c2cc(Cl)cc(Cl)c2)c2cc(-c3ccccc3)ccc21` [Example 55, 5-(3,5-Dichloro-phenyl)-1-methyl-7-phenyl-1,3-dihydro-benzo[e][1,4]diazepin-2-one] yielded an inhibition at 10 µM of 53%. For `CN1C(=O)CN=C(c2ccc(Cl)c(Cl)c2)c2cc(-c3ccccc3)ccc21` [Example 56, 5-(3,4-Dichloro-phenyl)-1-methyl-7-phenyl-1,3-dihydro-benzo[e][1,4]diazepin-2-one], the inhibition at 10 µM was 70%. In the case of `CN1C(=O)CN=C(c2ccc(F)cc2)c2cc(-c3ccccc3)ccc21` [Example 57, 5-(4-Fluoro-phenyl)-1-methyl-7-phenyl-1,3-dihydro-benzo[e][1,4]diazepin-2-one], the inhibition at 10 µM is reported as 74%. In the case of `CC(=O)c1cccc(C2=NCC(=O)N(C)c3ccc(-c4ccccc4)cc32)c1` [Example 58, 5-(3-Acetyl-phenyl)-1-methyl-7-phenyl-1,3-dihydro-benzo[e][1,4]diazepin-2-one], the inhibition at 10 µM is reported as 91%. `CN1C(=O)CN=C(c2cccc(C(F)(F)F)c2)c2cc(-c3ccccc3)ccc21` [Example 59, 1-Methyl-7-phenyl-5-(3-trifluoromethyl-phenyl)-1,3-dihydro-benzo[e][1,4]diazepin-2-one] showed an inhibition at 10 µM of 43%. `Cc1ccc(C2=NCC(=O)N(C)c3ccc(-c4ccccc4)cc32)cc1[N+](=O)[O-]` [Example 60, 1-Methyl-5-(4-methyl-3-nitro-phenyl)-7-phenyl-1,3-dihydro-benzo[e][1,4]diazepin-2-one] was tested, and the inhibition at 10 µM was 88%. Work on `CN1C(=O)CN=C(c2ccc(OC(F)(F)F)cc2)c2cc(-c3ccccc3)ccc21` [Example 61, 1-Methyl-7-phenyl-5-(4-trifluoromethoxy-phenyl)-1,3-dihydro-benzo[e][1,4]diazepin-2-one] yielded an inhibition at 10 µM of 31%. With `COc1cc2c(cc1-c1ccccc1)C(c1cccc(Br)c1)=NCC(=O)N2C` [Example 62, 5-(3-Bromo-phenyl)-8-methoxy-1-methyl-7-phenyl-1,3-dihydro-benzo[e][1,4]diazepin-2-one] the inhibition at 10 µM was 98%. In the case of `COc1ccc(C2=NCC(=O)N(C)c3ccc(-c4ccccc4)cc32)cc1OC` [Example 64, 5-(3,4-Dimethoxy-phenyl)-1-methyl-7-phenyl-1,3-dihydro-benzo[e][1,4]diazepin-2-one], the inhibition at 10 µM is reported as 79%. `CN1C(=O)CN=C(c2cccc([N+](=O)[O-])c2)c2cc(-c3ccccc3)ccc21` [Example 65, 1-Methyl-5-(3-nitro-phenyl)-7-phenyl-1,3-dihydro-benzo[e][1,4]diazepin-2-one] was tested, and the inhibition at 10 µM was 78%.

Same assay, conditions: read-out: PDE2 percentage of inhibition at 10 μM
`CCCCCCN1C(=O)CN=C(c2cccc(C#N)c2)c2cc(-c3ccccc3OC)c(OC)cc21` [Example 35, 3-[1-Hexyl-8-methoxy-7-(2-methoxy-phenyl)-2-oxo-2,3-dihydro-1H-benzo[e][1,4]diazepin-5-yl]-benzonitrile] gave an inhibition at 10 µM of 39%. Work on `CCCN1C(=O)CN=C(c2cccc(C#N)c2)c2cc(-c3ccccc3OC)c(OC)cc21` [Example 37, 3-[8-Methoxy-7-(2-methoxy-phenyl)-2-oxo-1-propyl-2,3-dihydro-1H-benzo[e][1,4]diazepin-5-yl]-benzonitrile] yielded an inhibition at 10 µM of 45%. For `COc1ccccc1-c1cc2c(cc1OC)N(Cc1ccccc1)C(=O)CN=C2c1cccc(C#N)c1` [Example 39, 3-[1-Benzyl-8-methoxy-7-(2-methoxy-phenyl)-2-oxo-2,3-dihydro-1H-benzo[e][1,4]diazepin-5-yl]-benzonitrile], the inhibition at 10 µM was 72%. Work on `COc1cc2c(cc1-c1ccc(C#N)cc1)C(c1cccc(C#N)c1)=NCC(=O)N2C` [Example 43, 3-(8-Methoxy-1-methyl-2-oxo-7-(4-cyanophenyl)-2,3-dihydro-1H-benzo[e][1,4]diazepin-5-yl)-benzonitrile] yielded an inhibition at 10 µM of 92%. In the case of `COc1ccccc1-c1cc2c(cc1OC)N(Cc1ccccc1)C(=O)CN=C2c1cccc(C(N)=O)c1` [Example 44, 3-[1-Benzyl-8-methoxy-7-(2-methoxy-phenyl)-2-oxo-2,3-dihydro-1H-benzo[e][1,4]diazepin-5-yl]-benzamide], the inhibition at 10 µM is reported as 88%. `CCCN1C(=O)CN=C(c2cccc(C(N)=O)c2)c2cc(-c3ccccc3OC)c(OC)cc21` [Example 45, 3-[8-Methoxy-7-(2-methoxy-phenyl)-2-oxo-1-propyl-2,3-dihydro-1H-benzo[e][1,4]diazepin-5-yl]-benzamide] was tested, and the inhibition at 10 µM was 48%. Work on `COc1ccccc1-c1cc2c(cc1OC)N(CCc1ccccc1)C(=O)CN=C2c1cccc(C(N)=O)c1` [Example 46, 3-[8-Methoxy-7-(2-methoxy-phenyl)-2-oxo-1-phenethyl-2,3-dihydro-1H-benzo[e][1,4]diazepin-5-yl]-benzamide] yielded an inhibition at 10 µM of 78%. Molecule `CCCCCCN1C(=O)CN=C(c2cccc(C(N)=O)c2)c2cc(-c3ccccc3OC)c(OC)cc21` [Example 47, 3-[1-Hexyl-8-methoxy-7-(2-methoxy-phenyl)-2-oxo-2,3-dihydro-1H-benzo[e][1,4]diazepin-5-yl]-benzamide] has an inhibition at 10 µM of 59%. `COc1cc2c(cc1-c1ccc(C(C)=O)cc1)C(c1cccc(C#N)c1)=NCC(=O)N2C` [Example 48, 3-[7-(4-Acetylphenyl)-8-methoxy-1-methyl-2-oxo-2,3-dihydro-1H-benzo[e][1,4]diazepin-5-yl]-benzonitrile] was tested, and the inhibition at 10 µM was 97%. `COc1cc2c(cc1-c1ccc(C(C)=O)cc1)C(c1cccc(C(N)=O)c1)=NCC(=O)N2C` [Example 49, 3-[7-(4-Acetylphenyl)-8-methoxy-1-methyl-2-oxo-2,3-dihydro-1H-benzo[e][1,4]diazepin-5-yl]-benzamide] showed an inhibition at 10 µM of 99%. With `COc1ccc(C2=NCC(=O)N(C)c3ccc(-c4ccccc4)cc32)cc1` [Example 50, 5-(4-Methoxy-phenyl)-1-methyl-7-phenyl-1,3-dihydro-benzo[e][1,4]diazepin-2-one] the inhibition at 10 µM was 95%. For `COc1ccc(-c2ccc3c(c2)C(c2cccc(C#N)c2)=NCC(=O)N3C)cc1OC` [Example 53, 3-[7-(3,4-Dimethoxy-phenyl)-1-methyl-2-oxo-2,3-dihydro-1H-benzo[e][1,4]diazepin-5-yl]-benzonitrile], the inhibition at 10 µM was 95%. Molecule `COc1ccc(-c2ccc3c(c2)C(c2cccc(C(N)=O)c2)=NCC(=O)N3C)cc1OC` [Example 54, 3-[7-(3,4-Dimethoxy-phenyl)-1-methyl-2-oxo-2,3-dihydro-1H-benzo[e][1,4]diazepin-5-yl]-benzamide] has an inhibition at 10 µM of 94%. `COc1cc2c(cc1-c1ccccc1OC(C)C)C(c1cccc(C#N)c1)=NCC(=O)N2C` [Example 63, 3-[7-(2-isopropoxy-phenyl)-8-methoxy-1-methyl-2-oxo-2,3-dihydro-1H-benzo[e][1,4]diazepin-5-yl]-benzonitrile] showed an inhibition at 10 µM of 98%.
